The target in the test is T1, GST-tagged GDP-loaded KRAS G12V (amino acids 1-169) (Homo sapiens, UniProt P01116, G12V).
T1 construct: GST-tagged GDP-loaded KRAS G12V (amino acids 1-169); made in house; host or cells: E. coli
The experiment in a line: KRAS G12V probe displacement assay (TR-FRET). The test is classed as binding. The settings on record: displacement of biotinylated probe 2 from GDP-loaded KRAS G12V. A digest of the protocol: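 GST-tagged GDP-loaded KRAS 1-169 (WT 3 nM; G12V 2 nM final) preincubated 1 h at 24 °C with serially diluted compound in HEPES pH 7.5 buffer, then biotinylated probe added (probe 1 60 nM for WT; probe 2 2.5 nM for G12V), 1 h. Anti-GST-Tb/streptavidin-XL665 TR-FRET 665/620 ratio; IC50 by four-parameter fit.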

These results are taken from US20250101028A1, “HETEROCYCLIC COMPOUNDS, COMPOSITIONS THEREOF, AND METHODS OF TREATMENT THEREWITH” (BeiGene, Ltd., priority 2022, published 2025).

T1 sequence (P01116 1-169 isoform P01116-2 G12V): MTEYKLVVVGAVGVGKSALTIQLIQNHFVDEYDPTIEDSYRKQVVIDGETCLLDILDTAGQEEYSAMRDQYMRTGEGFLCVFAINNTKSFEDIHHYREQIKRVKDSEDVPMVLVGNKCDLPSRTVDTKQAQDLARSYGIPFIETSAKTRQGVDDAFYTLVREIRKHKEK

Regarding `Nc1cc(Cl)c(C(F)(F)F)c(-c2ncc3c(NC45CC(C4)C5)nc(OC[C@@]45CCCN4C[C@H](F)C5)nc3c2F)c1` [Example 112, 7-(5-amino-3-chloro-2-(trifluoromethyl)phenyl)-N-(bicyclo [1.1.1]pentan-1-yl)-8-fluoro-2-(((2R,7aS)-2-fluorotetrahydro-1H-pyrrolizin-7a(5H)-yl)methoxy) pyrido[4,3-d]pyrimidin-4-amine], the IC50 (in general, the concentration that inhibits the measured activity by half) turned out to be 19 nM.
Take `CC[C@H]1COCCN1c1nc(OC[C@@]23CCCN2C[C@H](F)C3)nc2c(F)c(-c3cc(N)cc(Cl)c3C(F)(F)F)ncc12` [Example 116, 3-chloro-5-(4-((S)-3-ethylmorpholino)-8-fluoro-2-(((2R,7aS)-2-fluorotetrahydro-1H-pyrrolizin-7a(5H)-yl)methoxy)pyrido[4,3-d]pyrimidin-7-yl)-4-(trifluoromethyl)aniline]: the half-maximal inhibitory concentration (IC50) is 4.4 nM.
The molecule `CC1CN(c2nc(OC[C@@]34CCCN3C[C@H](F)C4)nc3c(F)c(-c4cc(N)cc(Cl)c4C(F)(F)F)ncc23)CCC1C#N` (stereo partly drawn) [Example 123, 1-(7-(5-amino-3-chloro-2-(trifluoromethyl)phenyl)-8-fluoro-2-(((2R,7aS)-2-fluorotetrahydro-1H-pyrrolizin-7a(5H)-yl)methoxy)pyrido[4,3-d]pyrimidin-4-yl)-3-methylpiperidine-4-carbonitrile] registered an IC50 of 22 nM.
`C[C@H]1CCCN1c1nc(OC[C@@]23CCCN2C[C@H](F)C3)nc2c(F)c(-c3ccc(F)c4sc(N)nc34)c(C(F)(F)F)cc12` [Example 56, 7-fluoro-4-(8-fluoro-2-(((2R,7aS)-2-fluorotetrahydro-1H-pyrrolizin-7a(5H)-yl)methoxy)-4-((S)-2-methylpyrrolidin-1-yl)-6-(trifluoromethyl)quinazolin-7-yl)benzo[d]thiazol-2-amine] registered an IC50 of 22 nM.
In the case of `Nc1nc2c(-c3c(C(F)(F)F)cc4c(N[C@H]5C[C@H](O)C5)nc(OC[C@@]56CCCN5C[C@H](F)C6)nc4c3F)ccc(F)c2s1` [Example 12, (trans)-3-((7-(2-amino-7-fluorobenzo[d]thiazol-4-yl)-8-fluoro-2(((2R,7aS)-2-fluorotetrahydro-1H-pyrrolizin-7a(5H)-yl)methoxy)-6-(trifluoromethyl)quinazolin-4-yl)amino)cyclobutan-1-ol], the IC50 stood at 3.7 nM.
Consider `Nc1nc2c(-c3c(C(F)(F)F)cc4c(N5CCCC(O)CC5)nc(OC[C@@]56CCCN5C[C@H](F)C6)nc4c3F)ccc(F)c2s1` (stereo partly drawn) [Example 84, 1-(7-(2-amino-7-fluorobenzo[d]thiazol-4-yl)-8-fluoro-2-(((2R,7aS)-2-fluorotetrahydro-1H-pyrrolizin-7a(5H)-yl)methoxy)-6-(trifluoromethyl)quinazolin-4-yl)azepan-4-ol], for which the IC50 is 0.98 nM.
For `COC1CC1Nc1nc(OC[C@@]23CCCN2C[C@H](F)C3)nc2c(F)c(-c3ccc(F)c4sc(N)nc34)c(C(F)(F)F)cc12` (stereo partly drawn) [Example 6, 7-fluoro-4-(8-fluoro-2-(((2R,7aS)-2-fluorotetrahydro-1H-pyrrolizin-7a(5H)-yl)methoxy)-4-((2-methoxycyclopropyl)amino)-6-(trifluoromethyl)quinazolin-7-yl)benzo[d]thiazol-2-amine], the half-inhibitory concentration (IC50) stood at 54 nM.
With `Nc1nc2c(-c3c(C(F)(F)F)cc4c(NC56CC(C5)C6)nc(OC[C@@]56CCCN5C[C@H](F)C6)nc4c3F)ccc(F)c2s1` [Example 24, 4-(4-(bicyclo [1.1.1]pentan-1-ylamino)-8-fluoro-2-(((2R,7aS)-2-fluorotetrahydro-1H-pyrrolizin-7a(5H)-yl)methoxy)-6-(trifluoromethyl)quinazolin-7-yl)-7-fluorobenzo[d]thiazol-2-amine] the figure was 24 nM; with `CC1CN(c2nc(OC[C@@]34CCCN3C[C@H](F)C4)nc3c(F)c(-c4ccc(F)c5sc(N)nc45)c(C(F)(F)F)cc23)C1` [Example 34, 7-fluoro-4-(8-fluoro-2-(((2R,7aS)-2-fluorotetrahydro-1H-pyrrolizin-7a(5H)-yl)methoxy)-4-(3-methylazetidin-1-yl)-6-(trifluoromethyl)quinazolin-7-yl)benzo[d]thiazol-2-amine], 52 nM; with `C[C@H]1COCCN1c1nc(OC[C@@]23CCCN2C[C@H](F)C3)nc2c(F)c(-c3cc(N)cc(Cl)c3C(F)(F)F)ncc12` [Example 114, 3-chloro-5-(8-fluoro-2-(((2R,7aS)-2-fluorotetrahydro-1H-pyrrolizin-7a(5H)-yl)methoxy)-4-((S)-3-methylmorpholino)pyrido[4,3-d]pyrimidin-7-yl)-4-(trifluoromethyl)aniline], 9.2 nM.
In the case of `Nc1nc2c(-c3c(Cl)cc4c(N[C@H]5[C@@H]6COC[C@@H]65)nc(OC[C@@]56CCCN5C[C@H](F)C6)nc4c3F)ccc(F)c2s1` [Example 29, 4-(4-(((1R,5S,6r)-3-oxabicyclo[3.1.0]hexan-6-yl)amino)-6-chloro-8-fluoro-2-(((2R,7aS)-2-fluorotetrahydro-1H-pyrrolizin-7a(5H)-yl)methoxy)quinazolin-7-yl)-7-fluorobenzo[d]thiazol-2-amine] it was 15 nM; in that of `N#C[C@@H]1CCCN(c2nc(OC[C@@]34CCCN3C[C@H](F)C4)nc3c(F)c(-c4ccc(F)c5sc(N)nc45)c(C(F)(F)F)cc23)C1` [Example 76, (3R)-1-(7-(2-amino-7-fluorobenzo[d]thiazol-4-yl)-8-fluoro-2-(((2R,7aS)-2-fluorotetrahydro-1H-pyrrolizin-7a(5H)-yl)methoxy)-6-(trifluoromethyl)quinazolin-4-yl)piperidine-3-carbonitrile], 21 nM.
In the case of `N#CCC1CCN(c2nc(OC[C@@]34CCCN3C[C@H](F)C4)nc3c(F)c(-c4ccc(F)c5sc(N)nc45)c(C(F)(F)F)cc23)CC1` [Example 71, 2-(1-(7-(2-amino-7-fluorobenzo[d]thiazol-4-yl)-8-fluoro-2-(((2R,7aS)-2-fluorotetrahydro-1H-pyrrolizin-7a(5H)-yl)methoxy)-6-(trifluoromethyl)quinazolin-4-yl)piperidin-4-yl)acetonitrile] it was 10 nM; in that of `N#CCC1CCN(c2nc(OC[C@@]34CCCN3C[C@H](F)C4)nc3c(F)c(-c4cc(N)cc(Cl)c4C(F)(F)F)ncc23)CC1` [Example 125, 2-(1-(7-(5-amino-3-chloro-2-(trifluoromethyl)phenyl)-8-fluoro-2-(((2R,7aS)-2-fluorotetrahydro-1H-pyrrolizin-7a(5H)-yl)methoxy)pyrido[4,3-d]pyrimidin-4-yl)piperidin-4-yl)acetonitrile], 81 nM.
Molecule `CC1(O)CN(c2nc(OC[C@@]34CCCN3C[C@H](F)C4)nc3c(F)c(-c4ccc(F)c5sc(N)nc45)c(C(F)(F)F)cc23)C1` [Example 46, 1-(7-(2-amino-7-fluorobenzo[d]thiazol-4-yl)-8-fluoro-2-(((2R,7aS)-2-fluorotetrahydro-1H-pyrrolizin-7a(5H)-yl)methoxy)-6-(trifluoromethyl)quinazolin-4-yl)-3-methylazetidin-3-ol] displayed a half-maximal inhibitory concentration (IC50) of 7.1 nM.
`Nc1nc2c(-c3c(C(F)(F)F)cc4c(N5CC[C@H](F)C5)nc(OC[C@@]56CCCN5C[C@H](F)C6)nc4c3F)ccc(F)c2s1` [Example 52, 7-fluoro-4-(8-fluoro-4-((S)-3-fluoropyrrolidin-1-yl)-2-(((2R,7aS)-2-fluorotetrahydro-1H-pyrrolizin-7a(5H)-yl)methoxy)-6-(trifluoromethyl)quinazolin-7-yl)benzo[d]thiazol-2-amine] came in with an IC50 of 19 nM.
With `Cc1cc(N)nc(-c2c(Cl)cc3c(N4CCOC[C@@H]4C)nc(OC[C@@]45CCCN4C[C@H](F)C5)nc3c2F)c1C(F)(F)F` [Example 105, 6-(6-chloro-8-fluoro-2-(((2R,7aS)-2-fluorotetrahydro-1H-pyrrolizin-7a(5H)-yl)methoxy)-4-((S)-3-methylmorpholino)quinazolin-7-yl)-4-methyl-5-(trifluoromethyl)pyridin-2-amine] the figure was 25 nM; with `Nc1nc2c(-c3c(C(F)(F)F)cc4c(NC5CC(F)(F)C5)nc(OC[C@@]56CCCN5C[C@H](F)C6)nc4c3F)ccc(F)c2s1` [Example 17, 4-(4-((3,3-difluorocyclobutyl)amino)-8-fluoro-2-(((2R,7aS)-2-fluorotetrahydro-1H-pyrrolizin-7a(5H)-yl)methoxy)-6-(trifluoromethyl)quinazolin-7-yl)-7-fluorobenzo[d]thiazol-2-amine], 43 nM.
With `CC[C@@H]1COCCN1c1nc(OC[C@@]23CCCN2C[C@H](F)C3)nc2c(F)c(-c3cc(N)cc(Cl)c3C(F)(F)F)ncc12` [Example 117, 3-chloro-5-(4-((R)-3-ethylmorpholino)-8-fluoro-2-(((2R,7aS)-2-fluorotetrahydro-1H-pyrrolizin-7a(5H)-yl)methoxy)pyrido[4,3-d]pyrimidin-7-yl)-4-(trifluoromethyl)aniline] the figure was 12 nM.
In the case of `Nc1nc2c(-c3c(C(F)(F)F)cc4c(N[C@H]5C[C@H](CO)C5)nc(OC[C@@]56CCCN5C[C@H](F)C6)nc4c3F)ccc(F)c2s1` [Example 21, ((trans)-3-((7-(2-amino-7-fluorobenzo[d]thiazol-4-yl)-8-fluoro-2-(((2R,7aS)-2-fluorotetrahydro-1H-pyrrolizin-7a(5H)-yl)methoxy)-6-(trifluoromethyl)quinazolin-4-yl)amino)cyclobutyl)methanol] it was 4.1 nM; in that of `Nc1nc2c(-c3c(C(F)(F)F)cc4c(N5CC[C@@H](F)C5)nc(OC[C@@]56CCCN5C[C@H](F)C6)nc4c3F)ccc(F)c2s1` [Example 51, 7-fluoro-4-(8-fluoro-4-((R)-3-fluoropyrrolidin-1-yl)-2-(((2R,7aS)-2-fluorotetrahydro-1H-pyrrolizin-7a(5H)-yl)methoxy)-6-(trifluoromethyl)quinazolin-7-yl)benzo[d]thiazol-2-amine], 11 nM.
